Assay [1] deals with JAK kinases (JAK1 and JAK3). The assay is described as follows: JAK inhibition: IL-4-stimulated CD23 upregulation in human Ramos B-cells, FACS. To be noted: IL-4 stimulated Ramos B-cells, read-out: IC50, inhibition of JAK kinases in cellular assay. The assay is classed as cell-based. The procedure:
JAK inhibition was tested in human Ramos B-cells activated with IL-4. Twenty to 24 hours post stimulation, the cells are stained for upregulation of CD23 and analyzed by FACS. Stimulation of the B-cells with IL-4 leads to the activation of the JAK/STAT pathway through phosphorylation of the JAK kinase JAK1 and JAK3, which in turn phosphorylate and activate transcription of factor […].
For the assay, human Ramos B-cells (ATCC, Catalog No. CRL-1596) are cultured in RPMI 1640 medium (Cellgro, Catalog No. 10-040-CM) containing 10% fetal bovine serum (JRH, Catalog No. 12106-500M) according to the propagation protocol supplied with the cells, and maintained at a density of approximately 3.5×10^5 cells/ml. The day before the assay, the cells are diluted to 3.5×10^5 cells/ml to insure they are in the logarithmic growth phase. The cells are spun down, and suspended in RPMI 1640 medium containing 5% fetal bovine serum to a density of 3.5×10^4 cells/ml and aliquots dispensed into a 96-well tissue culture plate. Cells are incubated with test compound (dissolved in DMSO) or DMSO (control) for 1 hr at 37° C. and then stimulated with IL-4 (Pepotech, Catalog No. 200-04) for 20-24 hours (final concentration is 50 Units/ml). Cells are then spun down, stained with anti-CD23-PE antibody (BD Pharmigen, Catalog No. 555711) and analyzed by FACS.

Assay [2] concerns the target Syk kinase (Homo sapiens, UniProt P43405). Nature of the assay: cell-based Syk assay. To be noted: read-out: IC50, inhibition of Syk kinase.
The target in assay [3] is T1, Axl kinase (Homo sapiens, UniProt P30530).
T1 construct: endogenous in cells; host or cells: HeLa cells
T1 sequence (P30530 26-894): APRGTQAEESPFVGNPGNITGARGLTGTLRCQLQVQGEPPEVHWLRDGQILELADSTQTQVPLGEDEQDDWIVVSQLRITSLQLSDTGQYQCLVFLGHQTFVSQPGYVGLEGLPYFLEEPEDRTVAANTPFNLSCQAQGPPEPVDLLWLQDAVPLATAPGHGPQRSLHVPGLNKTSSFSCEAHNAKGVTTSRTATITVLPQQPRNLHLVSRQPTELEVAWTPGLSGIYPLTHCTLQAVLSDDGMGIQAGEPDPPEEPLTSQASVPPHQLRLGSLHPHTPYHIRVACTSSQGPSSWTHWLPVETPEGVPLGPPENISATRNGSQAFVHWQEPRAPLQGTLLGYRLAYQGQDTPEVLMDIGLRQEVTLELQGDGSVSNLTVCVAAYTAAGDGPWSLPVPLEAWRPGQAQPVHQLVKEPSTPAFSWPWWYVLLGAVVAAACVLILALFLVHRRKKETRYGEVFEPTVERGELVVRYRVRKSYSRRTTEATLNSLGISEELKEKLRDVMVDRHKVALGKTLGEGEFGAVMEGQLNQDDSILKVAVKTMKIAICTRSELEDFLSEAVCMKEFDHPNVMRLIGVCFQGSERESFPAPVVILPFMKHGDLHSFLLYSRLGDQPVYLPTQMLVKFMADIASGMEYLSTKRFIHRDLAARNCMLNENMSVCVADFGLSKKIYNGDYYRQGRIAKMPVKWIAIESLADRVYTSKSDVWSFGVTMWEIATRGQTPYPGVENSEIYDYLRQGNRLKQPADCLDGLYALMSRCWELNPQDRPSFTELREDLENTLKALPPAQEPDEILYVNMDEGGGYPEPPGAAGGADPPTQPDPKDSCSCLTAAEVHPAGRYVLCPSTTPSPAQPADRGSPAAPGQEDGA
Nature of the assay: Phospho-Akt in-cell Western assay (Axl antibody cross-linking, Hela cells). It is filed as cell-based. To be noted: phospho-Akt readout, read-out: IC50, inhibition of Axl kinase. As to the method:
The compounds of the invention were tested in the following assay for their ability to inhibit Axl activity.
Phospho-Akt in-Cell Western Assay
Starvation medium: For Axl stimulation: 0.5% FCS (fetal calf serum) in DMEM, plus Axl/Fc (extracellular domain of AXL fused to immunoglobulin Fc region) (R&D, 154-AL) 500 ng/mL.
Axl antibody cross-linking: • 1st: Mouse anti-Axl (R&D, MAB 154). • 2nd: Biotin-SP-conjugated AffiniPure goat anti-mouse IgG (H+L) (Jackson ImmunoResearch #115-065-003).
Primary antibody: Rabbit anti-human Phospho-Akt antibody (Cell Signaling 9271): 1×250 diluted in blocking buffer.
Secondary antibody: HRP (horse radish peroxidase)-conjugated Goat anti-Rabbit secondary, stock solution: Jackson lmmunoResearch (Goat anti-Rabbit HRP, #111-035-144) 1:1 diluted in glycerol, store at −20° C. The working solution: 1×2000 dilution of stock in blocking buffer.
A 96 well TC (tissue culture treated) plate was coated with 10 μg/mL poly-L-Lysine at 37° C. for 30 min, washed twice with PBS, and air-dried for 5 minutes before cells were added. Hela cells were seeded at 10,000 cells/well and the cells were starved in 100 μL starvation medium containing Axl/Fc for 24 hrs.
The cells were pre-treated with test compounds by adding 100 μL of 2× test compound to the starvation medium on the cells. The cells were incubated at 37° C. for 1 hr before stimulation.
The cells were stimulated by Axl-antibody cross-linking as follows: A 5× 1st/2nd Axl antibody mixture was made (37.5 μg/mL 1st/100 μg/mL 2nd) in starvation medium and nutated at 4° C. with thorough mixing for 1-2 hours for clustering. The resulting mix was warmed to 37° C. 50 μL of 5× Axl 1st/2nd of antibody cluster was added to the cells and the cells were incubated at 37° C. for 5 min.
After 5 minutes stimulation, the plate was flicked to remove medium and the plate was tapped onto paper towels. Formaldehyde (4.0% in PBS, 100 μL) was added to fix the cells and the cells were incubated at ambient temperature for 20 min without shaking.
The cells were washed with a plate washer buffer to remove the formaldehyde solution. The plate was flicked to remove excess wash buffer and tapped onto paper towels. Quenching buffer (100 μL) was added to each well and the cells were incubated at ambient temperature for 20 minutes without shaking.
The cells were washed with a plate washer buffer to remove the quenching buffer. Blocking buffer (100 μL) was added and the cells were incubated at ambient temperature for at least an hour with gentle shaking.
The cells were washed with a plate washer buffer and diluted primary antibody (50 μL) was added to each well (blocking buffer was added to the negative control wells instead). The plates were incubated overnight at 4° C. with gentle shaking.
The wash buffer was removed, diluted secondary antibody (100 μL) was added, and the cells were incubated at ambient temperature for 1 hour with gentle shaking. During the incubation, the chemiluminescent reagent was brought to ambient temperature.
The secondary antibody was removed by washing the cells 1× with wash buffer, 1× with PBS by plate washer. The PBS was removed from the plate and the chemiluminescent reagent (80 μL: 40 μL A and 40 μL B) was added to each well at ambient temperature.
The resulting chemiluminescence was read with a Luminomitor within 10 minutes to minimize changes in signal intensity. After reading the chemiluminescence, the cells were washed 1× with wash buffer and 1× with PBS by plate washer. The plate was tapped onto paper towels to remove excess liquid from wells and air-dried at ambient temperature for 5 minutes.
Crystal Violet working solution (60 μL) was added to each well and the cells were incubated at ambient temperature for 30 min. The crystal violet solution was removed, and the wells were rinsed with PBS, then washed 3× with PBS (200 μL) for 5 minutes each.
5% SDS solution (70 μL) was added to each well and the cells were incubated on a shaker for 30 min at ambient temperature. […]

Read-outs that look alike come from different tables or passages of the source.

`CC(C)Oc1cccc(Nc2nc(NC3C4C=CC(C4)C3C(=O)N(C)C)c3nc[nH]c3n2)c1` (racemic) [Compound 140]: the figures for the IC50 in assay [1] and in assay [2] were less than 5 µM and greater than 10 µM, respectively.

Regarding `Cc1cccc(Nc2nc(NC3C4C=CC(C4)C3C(=O)N(C)C)c3nc[nH]c3n2)c1` (racemic) [Compound 141], the concentration for half-maximal inhibition (IC50) in assay [1] was less than 5 µM; in assay [2], less than 10 µM.

As to `COc1cccc(Nc2nc(NC3C4C=CC(C4)C3C(=O)N(C)C)c3nc[nH]c3n2)c1` (racemic) [Compound 142], the IC50 in assay [1] was greater than 10 µM; in assay [2], less than 10 µM.

Turning to `CSc1cccc(Nc2nc(NC3C4C=CC(C4)C3C(=O)N(C)C)c3nc[nH]c3n2)c1` (racemic) [Compound 143], the IC50 in assay [1] is less than 5 µM; in assay [2] it was less than 10 µM.

As to `CN(C)C(=O)C1C2C=CC(C2)C1Nc1nc(Nc2cccc(S(N)(=O)=O)c2)nc2[nH]cnc12` (racemic) [Compound 144], the IC50 was less than 5 µM in assay [1] and less than 10 µM in assay [2].

Consider `CN(C)C(=O)C1C2C=CC(C2)C1Nc1nc(Nc2ccc(N3CCCCC3)cc2)nc2[nH]cnc12` (racemic) [Compound 145], for which the IC50 in assay [1] is less than 5 µM; in assay [2], less than 10 µM.

With `CN(C)C(=O)C1C2C=CC(C2)C1Nc1nc(Nc2ccc(Cc3ccncc3)cc2)nc2[nH]cnc12` (racemic) [Compound 146], the values for the IC50 in assay [1] and in assay [2] were less than 5 µM and less than 10 µM, respectively.

As for `NC(=O)C1C2CC(C1Nc1nc(Nc3ccc(N4CCOCC4)cc3)nc3[nH]ccc13)C1ON=C(c3ccccc3)C21` (racemic) [Compound 219, Racemic-(5-exo,6-exo)-N4-(4,7-methano-1,2-benzisoxazol-3a,4,5,6,7,7a-hexahydro-3-phenyl-5-aminocarbonyl-6-yl)-N2-[4-(4-morpholinyl)phenyl]-1H-pyrrolo[2,3-d]pyrimidine-2,4-diamine], the IC50 in assay [1] was less than 10 µM; in assay [3], greater than 10 µM; in assay [2], greater than 10 µM.

Consider `CONC(=O)Cc1ccc(Nc2nc(NC3C4C=CC(C4)C3C(N)=O)c3cc[nH]c3n2)cc1` (racemic) [Compound 227, Racemic-(2-exo,3-exo)-N4-(3-aminocarbonylbicyclo [2.2.1]hept-5-en-2-yl)-N2-[4-(N-methoxy)-aminocarbonyl-methylphenyl]-1H-pyrrolo[2,3-d]pyrimidine-2,4-diamine], for which the figures for the IC50 in assay [3] and in assay [2] were greater than 10 µM and less than 10 µM, respectively.

Consider `CONC(=O)Cc1ccc(Nc2nc(NC3C4C=CC(C4)C3C(N)=O)c3nc[nH]c3n2)cc1` (racemic) [Compound 228, Racemic-(2-exo,3-exo-)-N6-(3-aminocarbonylbicyclo [2.2.1]hept-5-en-2-yl)-N2-[4-(N-methoxy)-aminocarbonyl-inethylphenyl]-1H-purine-2,6-diamine], for which the IC50 in assay [3] and in assay [2] was greater than 10 µM throughout.

Turning to `CONC(=O)Cc1cccc(Nc2nc(NC3C4C=CC(C4)C3C(N)=O)c3nc[nH]c3n2)c1` (racemic) [Compound 230, Racemic-(2-exo,3-exo-)-N6-(3-aminocarbonylbicyclo [2.2.1]hept-5-en-2-yl)-N2-[3-(N-methoxy)-aminocarbonyl-methylphenyl]-1H-purine-2,6-diamine], the IC50 in assay [3] was greater than 10 µM; in assay [2] it was less than 5 µM.

`NC(=O)C1C2C=CC(C2)C1Nc1nc(Nc2ccc(OCCN3CCCC3)c(Cl)c2)nc2[nH]cnc12` (racemic) [Compound 235, Racemic-(2-exo,3-exo-)-N6-(3-aminocarbonylbicyclo [2.2.1]hept-5-en-2-yl)-N2-[3-chloro-4-[2-(1-pyrrolidinyl)ethoxy]phenyl]-1H-purine-2,6-diamine]: in assay [2], the IC50 was less than 5 µM.

As for `NC(=O)C1C2C=CC(C2)C1Nc1nc(Nc2ccc(OCCN3CCCC3)c(F)c2)nc2[nH]cnc12` (racemic) [Compound 236, Racemic-(2-exo,3-exo-)-N6-(3-aminocarbonylbicyclo [2.2.1]hept-5-en-2-yl)-N2-[3-fluoro-4-[2-(1-pyrrolidinyl)ethoxy]phenyl]-1H-purine-2,6-diamine], in assay [2], the IC50 was less than 10 µM.

Regarding `Cc1csc2c(NC3C4C=CC(C4)C3C(N)=O)nc(Nc3ccc(OCCN4CCCC4)c(F)c3)nc12` (racemic) [Compound 241, Racemic-(2-exo,3-exo-)-7-methyl-N4-(3-aminocarbonylbicyclo [2.2.1]hept-5-en-2-yl)-N2-[3-fluoro-4-[2-(1-pyrrolidinyl)ethoxy]phenyl]-thieno[3,2-d]pyrimidine-2,4-diamine], the half-inhibitory concentration (IC50) in assay [1] and in assay [3] was less than 5 µM throughout.

On to `Cc1csc2c(NC3C4C=CC(C4)C3C(N)=O)nc(Nc3ccc(S(N)(=O)=O)cc3)nc12` (racemic) [Compound 242, Racemic-(2-exo,3-exo-)-7-methyl-N4-(3-aminocarbonylbicyclo [2.2.1]hept-5-en-2-yl)-N2-(4-aminosulfonyl)phenyl-thieno[3,2-d]pyrimidine-2,4-diamine], for which the results for the IC50 in assay [1] and in assay [3] were less than 5 µM and greater than 10 µM, respectively.

`CNC(=O)COc1cccc(Nc2nc(N[C@H]3[C@@H](C(N)=O)[C@@H]4C=C[C@H]3C4)c3nc[nH]c3n2)c1` [Compound 110]: the IC50 in assay [1] (unit printed MM) and in assay [2] was less than 10 µM each time.

As usually defined, the IC50 is the point on the concentration scale where inhibition reaches its midpoint.

(Values after patent US7601713B2, “Kinase inhibitors and their uses” (Rigel Pharmaceuticals, Inc., priority 2005, dated 2009).)
